How the values were obtained:
Format in all cases: ADME
[1] = target: T1, Cytochrome P450 2A6 (Homo sapiens, UniProt P11509); assay: (§1) Mechanism based inhibition of human cytochrome P450 2A6 measured by coumarin 7-hydroxylation
T1 sequence (P11509 whole entry): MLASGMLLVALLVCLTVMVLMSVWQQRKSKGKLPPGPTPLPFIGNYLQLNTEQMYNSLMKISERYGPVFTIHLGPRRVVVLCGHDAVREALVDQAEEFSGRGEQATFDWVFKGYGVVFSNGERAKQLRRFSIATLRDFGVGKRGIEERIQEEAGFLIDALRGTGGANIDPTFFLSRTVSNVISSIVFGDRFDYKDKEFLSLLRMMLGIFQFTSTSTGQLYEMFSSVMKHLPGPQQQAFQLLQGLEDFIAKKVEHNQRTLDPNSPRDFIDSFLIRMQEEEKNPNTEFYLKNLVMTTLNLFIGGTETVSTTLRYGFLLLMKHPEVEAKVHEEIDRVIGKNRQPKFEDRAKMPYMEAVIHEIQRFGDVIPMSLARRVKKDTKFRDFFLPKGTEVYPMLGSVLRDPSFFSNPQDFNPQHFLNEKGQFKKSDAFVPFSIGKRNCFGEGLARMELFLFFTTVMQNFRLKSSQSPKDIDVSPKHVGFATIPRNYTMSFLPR

[2] = target: T2, CYP2A6 (Homo sapiens, UniProt P11509); assay: as §1
T2 sequence (P11509 whole entry): T1 sequence (P11509 whole entry)

[3] = target: T3, Cytochrome P450 3A4 (Homo sapiens, UniProt P08684); assay: (§2) Mechanism based inhibition of human cytochrome P450 3A4 measured by testosterone 6-beta hydroxylation
[4] = target: T4, CYP3A4 (Homo sapiens, UniProt P08684); assay: as §2; settings: probe testosterone (6-beta hydroxylation)
[5] = target: T5, Cytochrome P450 1A2 (Homo sapiens, UniProt P05177); assay: Mechanism based inhibition of human cytochrome P450 1A2 measured by 7-ethoxyresorufin O-deethylation (EROD)
T5 sequence (P05177 whole entry): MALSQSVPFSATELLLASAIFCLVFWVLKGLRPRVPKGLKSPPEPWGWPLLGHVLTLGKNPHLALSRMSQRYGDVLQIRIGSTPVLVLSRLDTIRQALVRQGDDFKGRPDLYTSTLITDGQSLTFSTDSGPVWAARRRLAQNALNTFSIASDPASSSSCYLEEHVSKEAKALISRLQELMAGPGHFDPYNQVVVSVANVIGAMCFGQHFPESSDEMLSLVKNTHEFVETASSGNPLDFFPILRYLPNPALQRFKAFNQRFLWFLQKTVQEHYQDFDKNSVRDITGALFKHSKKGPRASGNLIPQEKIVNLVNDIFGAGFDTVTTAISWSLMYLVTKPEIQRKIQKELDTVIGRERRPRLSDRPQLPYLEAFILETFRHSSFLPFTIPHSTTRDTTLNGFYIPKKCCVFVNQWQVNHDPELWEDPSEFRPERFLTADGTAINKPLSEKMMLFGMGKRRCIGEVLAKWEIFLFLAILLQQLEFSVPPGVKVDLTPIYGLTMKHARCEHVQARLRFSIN

[6] = target: T6, Cytochrome P450 1A1 (Homo sapiens, UniProt P04798); assay: Mechanism based inhibition of human cytochrome P450 1A1 measured by 7-ethoxyresorufin O-deethylation (EROD)
T6 sequence (P04798 whole entry): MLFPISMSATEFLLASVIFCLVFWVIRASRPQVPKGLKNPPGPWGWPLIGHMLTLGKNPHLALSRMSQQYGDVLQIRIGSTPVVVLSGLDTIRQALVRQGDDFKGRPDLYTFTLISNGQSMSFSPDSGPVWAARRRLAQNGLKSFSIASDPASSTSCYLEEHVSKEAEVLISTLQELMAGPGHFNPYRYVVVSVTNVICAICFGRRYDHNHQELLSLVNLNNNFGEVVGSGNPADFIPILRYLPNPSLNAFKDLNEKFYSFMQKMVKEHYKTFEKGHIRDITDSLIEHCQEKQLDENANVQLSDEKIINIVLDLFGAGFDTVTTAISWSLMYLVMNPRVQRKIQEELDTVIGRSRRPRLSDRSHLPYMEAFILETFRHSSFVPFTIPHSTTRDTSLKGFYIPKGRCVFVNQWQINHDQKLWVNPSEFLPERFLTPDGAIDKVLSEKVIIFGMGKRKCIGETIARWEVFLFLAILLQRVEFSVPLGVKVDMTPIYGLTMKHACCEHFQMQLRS

[7] = target: T7, Cytochrome P450 1A1 (Rattus norvegicus, UniProt P00185); assay: (§3) Mechanism based inhibition of rat cytochrome P450 CYP1A1 measured by 7-ethoxyresorufin O-deethylation (EROD)
T7 sequence (P00185 whole entry): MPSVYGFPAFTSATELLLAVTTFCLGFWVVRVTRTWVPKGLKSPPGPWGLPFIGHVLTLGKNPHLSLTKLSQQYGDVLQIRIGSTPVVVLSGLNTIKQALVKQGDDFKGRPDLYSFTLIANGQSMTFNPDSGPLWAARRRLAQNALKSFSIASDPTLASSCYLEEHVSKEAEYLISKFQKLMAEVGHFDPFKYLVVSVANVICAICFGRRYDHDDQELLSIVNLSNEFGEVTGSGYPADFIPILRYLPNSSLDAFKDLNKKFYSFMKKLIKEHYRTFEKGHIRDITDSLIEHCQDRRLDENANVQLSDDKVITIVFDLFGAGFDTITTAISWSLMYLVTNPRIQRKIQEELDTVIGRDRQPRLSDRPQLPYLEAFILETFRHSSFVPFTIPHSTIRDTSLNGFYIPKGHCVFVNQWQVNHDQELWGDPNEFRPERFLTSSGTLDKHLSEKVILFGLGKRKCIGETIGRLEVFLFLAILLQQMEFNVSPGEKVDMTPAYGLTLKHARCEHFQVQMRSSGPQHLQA

[8] = target: T8, CYP1A1 (Rattus norvegicus, UniProt P00185); assay: as §3; settings: rat, probe 7-ethoxyresorufin (O-deethylation, EROD)
T8 sequence (P00185 whole entry): T7 sequence (P00185 whole entry)

[9] = target: T9, Cytochrome P450 1A2 (Rattus norvegicus, UniProt P04799); assay: (§4) Mechanism based inhibition of rat cytochrome P450 CYP1A2 measured by 7-methoxyresorufin O-demethylation (MROD)
T9 sequence (P04799 whole entry): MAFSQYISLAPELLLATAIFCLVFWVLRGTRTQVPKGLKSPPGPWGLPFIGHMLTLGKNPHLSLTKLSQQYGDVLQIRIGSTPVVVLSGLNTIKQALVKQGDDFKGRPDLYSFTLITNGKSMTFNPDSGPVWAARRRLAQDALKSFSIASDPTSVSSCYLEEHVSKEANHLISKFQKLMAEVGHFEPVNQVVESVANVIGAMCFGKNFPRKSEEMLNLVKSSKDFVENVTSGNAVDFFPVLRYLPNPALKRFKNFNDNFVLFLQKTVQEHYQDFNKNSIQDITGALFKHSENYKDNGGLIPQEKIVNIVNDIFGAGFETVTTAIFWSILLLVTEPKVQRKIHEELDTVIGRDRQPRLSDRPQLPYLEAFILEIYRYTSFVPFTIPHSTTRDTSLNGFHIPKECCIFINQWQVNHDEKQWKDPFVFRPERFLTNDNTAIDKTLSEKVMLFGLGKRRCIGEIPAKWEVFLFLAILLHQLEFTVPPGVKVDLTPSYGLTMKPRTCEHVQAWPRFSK

[10] = target: T10, CYP1A2 (Rattus norvegicus, UniProt P04799); assay: as §4; settings: rat, probe 7-methoxyresorufin (O-demethylation, MROD)
T10 sequence (P04799 whole entry): T9 sequence (P04799 whole entry)

[11] = target: Cytochrome P450 2E1 (Rattus norvegicus, UniProt P05182); assay: Mechanism based inhibition of rat cytochrome P450 CYP2E1
[12] = target: T3, Cytochrome P450 3A4; assay: (§5) Mechanism based inhibition of human cytochrome P450 3A4 measured by (14C)formaldehyde production from (N-methyl-14C)-erythromycin
[13] = target: T4, CYP3A4; assay: as §5; settings: human, probe (N-methyl-14C)-erythromycin
[14] = target: Cytochrome P450 2E1 (Homo sapiens, UniProt P05181); assay: Mechanism based inhibition of human cytochrome P450 2E1
[15] = target: T11, Cytochrome P450 2B1 (Rattus norvegicus, UniProt P00176); assay: Mechanism based inhibition of rat cytochrome P450 CYP2B1 measured by 7-EFC O-deethylation activity; settings: rat
T11 sequence (P00176 whole entry): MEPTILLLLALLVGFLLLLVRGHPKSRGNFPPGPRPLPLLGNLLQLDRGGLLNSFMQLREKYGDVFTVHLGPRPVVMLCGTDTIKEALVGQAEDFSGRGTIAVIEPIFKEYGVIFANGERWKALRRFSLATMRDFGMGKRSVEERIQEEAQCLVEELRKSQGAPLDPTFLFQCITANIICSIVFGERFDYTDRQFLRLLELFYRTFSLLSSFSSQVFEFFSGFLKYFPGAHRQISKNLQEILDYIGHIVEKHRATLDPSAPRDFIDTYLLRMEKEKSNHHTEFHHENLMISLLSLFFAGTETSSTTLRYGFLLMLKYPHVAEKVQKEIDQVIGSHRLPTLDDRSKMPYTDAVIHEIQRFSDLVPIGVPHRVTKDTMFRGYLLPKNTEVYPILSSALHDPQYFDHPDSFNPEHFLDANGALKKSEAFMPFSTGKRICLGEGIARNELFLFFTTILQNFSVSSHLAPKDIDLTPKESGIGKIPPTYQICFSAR

[16] = target: T11, Cytochrome P450 2B1; assay: Mechanism based inhibition of rat cytochrome P450 2B1

T3 sequence (P08684 whole entry): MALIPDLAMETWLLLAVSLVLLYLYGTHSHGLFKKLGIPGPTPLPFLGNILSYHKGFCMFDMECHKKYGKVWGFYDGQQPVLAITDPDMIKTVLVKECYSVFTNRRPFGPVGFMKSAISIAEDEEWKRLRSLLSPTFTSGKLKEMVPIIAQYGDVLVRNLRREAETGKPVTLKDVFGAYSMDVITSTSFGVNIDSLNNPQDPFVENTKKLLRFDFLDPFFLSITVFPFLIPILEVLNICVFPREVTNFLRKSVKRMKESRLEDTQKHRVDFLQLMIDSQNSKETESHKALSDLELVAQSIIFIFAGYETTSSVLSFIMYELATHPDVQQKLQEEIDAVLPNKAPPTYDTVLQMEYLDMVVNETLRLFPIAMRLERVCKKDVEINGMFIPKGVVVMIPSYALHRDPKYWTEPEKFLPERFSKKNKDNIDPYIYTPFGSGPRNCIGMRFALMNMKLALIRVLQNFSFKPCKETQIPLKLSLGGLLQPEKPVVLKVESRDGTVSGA
T4 sequence (P08684 whole entry): as above
Sequence of Cytochrome P450 2E1 (Rattus norvegicus, UniProt P05182) (P05182 whole entry): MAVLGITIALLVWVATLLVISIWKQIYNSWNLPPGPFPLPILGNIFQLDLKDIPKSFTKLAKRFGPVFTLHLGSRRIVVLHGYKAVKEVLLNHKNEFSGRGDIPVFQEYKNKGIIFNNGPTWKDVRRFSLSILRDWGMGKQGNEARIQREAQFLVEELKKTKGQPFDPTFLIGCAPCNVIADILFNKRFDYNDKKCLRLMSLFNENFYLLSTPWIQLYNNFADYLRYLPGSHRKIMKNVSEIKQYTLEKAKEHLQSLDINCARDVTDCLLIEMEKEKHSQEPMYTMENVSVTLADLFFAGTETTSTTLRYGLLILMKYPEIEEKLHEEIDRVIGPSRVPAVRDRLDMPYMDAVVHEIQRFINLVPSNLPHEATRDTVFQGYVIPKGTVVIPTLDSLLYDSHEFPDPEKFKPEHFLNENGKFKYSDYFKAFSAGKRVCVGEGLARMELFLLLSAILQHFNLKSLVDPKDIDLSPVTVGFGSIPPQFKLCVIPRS
Sequence of Cytochrome P450 2E1 (Homo sapiens, UniProt P05181) (P05181 whole entry): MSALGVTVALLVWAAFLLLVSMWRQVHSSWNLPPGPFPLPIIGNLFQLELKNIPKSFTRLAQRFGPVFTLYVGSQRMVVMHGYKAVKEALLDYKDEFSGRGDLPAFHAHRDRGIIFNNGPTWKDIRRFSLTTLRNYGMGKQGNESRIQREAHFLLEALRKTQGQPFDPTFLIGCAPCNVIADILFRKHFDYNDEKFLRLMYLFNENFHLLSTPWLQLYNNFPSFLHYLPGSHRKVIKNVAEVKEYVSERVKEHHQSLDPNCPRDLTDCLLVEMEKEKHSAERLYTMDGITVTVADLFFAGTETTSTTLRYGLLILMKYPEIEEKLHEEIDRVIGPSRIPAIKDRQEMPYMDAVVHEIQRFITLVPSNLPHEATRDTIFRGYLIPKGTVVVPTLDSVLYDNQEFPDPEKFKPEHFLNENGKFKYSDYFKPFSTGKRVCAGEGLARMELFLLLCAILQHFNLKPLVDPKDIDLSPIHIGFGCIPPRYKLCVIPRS

COc1c2c(cc3ccc(=O)oc13)CCO2
Ki [1]: 27 µM | kinact ([2]; human, probe coumarin (7-hydroxylation)): 0.00233 s⁻¹

CNCCCC(C#N)(c1ccc(OC)c(OC)c1)C(C)C (stereo not given)
Ki [3]: 7.93 µM | kinact ([4]; human): 0.00117 s⁻¹

Cc1cc(C)c(SCC[n+]2noc([O-])c2C)c(C)c1
mechanism based inhibition [5]: Cytochrome P450 mechanistic inhibitor: PMID 9107543 | mechanism based inhibition [6]: Cytochrome P450 mechanistic inhibitor: PMID 9107543 | mechanism based inhibition [3]: Cytochrome P450 mechanistic inhibitor: PMID 9107543

CC(C)CN(C[C@@H](O)[C@H](Cc1ccccc1)NC(=O)[C@@H](NC(=O)CNCc1cccc(F)c1)C(C)(C)C)S(=O)(=O)c1cccc(N)c1
Ki [3]: 0.24 µM | kinact ([4]; human): 0.00367 s⁻¹

C#Cc1ccc(NC(C)=O)cc1
Ki [7]: 8.6 µM | kinact [8]: 0.0015 s⁻¹

CC#CCCCc1ccccc1
Ki [7]: 0.54 µM | kinact [8]: 0.00833 s⁻¹

CC#Cc1ccc2ccccc2c1
mechanism based inhibition ([7]; rat): Cytochrome P450 mechanistic inhibitor: PMID 9074808

C#Cc1ccc2c(ccc3ccccc32)c1
Ki [7]: 0.25 µM | kinact [8]: 0.0133 s⁻¹

C#Cc1ccc2ccc3ccccc3c2c1
Ki [7]: 0.09 µM | kinact [8]: 0.00167 s⁻¹

C#Cc1ccc2ccc3cccc4ccc1c2c34
Ki [7]: 0.02 µM | kinact [8]: 0.00117 s⁻¹

C#Cc1cc2cccc3ccc4cccc1c4c32
Ki [9]: 1.2 µM | kinact [10]: 0.005 s⁻¹ | Ki [7]: 0.01 µM | kinact [8]: 0.00117 s⁻¹

C/C=C\Cl.Cl/C=C\Cl
mechanism based inhibition [11]: Cytochrome P450 mechanistic inhibitor: PMID 9851676

CCC[C@@H](NC(=O)N1C(=O)C(CC)(CC)[C@@H]1Oc1ccc(C(=O)N2CCN(C)CC2)cc1)c1ccc2c(c1)OCO2
mechanism based inhibition [3]: Cytochrome P450 mechanistic inhibitor

CC#Cc1ccc2ccc3cccc4ccc1c2c34
Ki [9]: 0.004 µM | kinact [10]: 0.001 s⁻¹ | Ki [7]: 0.3 µM | kinact [8]: 0.000333 s⁻¹

C#Cc1ccc(-c2ccccc2)cc1
Ki [9]: 0.87 µM | kinact [10]: 0.00167 s⁻¹ | Ki [7]: 0.27 µM | kinact [8]: 0.001 s⁻¹

COc1cc(C[C@@H](CO)[C@H](CO)Cc2ccc3c(c2)OCO3)cc(OC)c1OC
Ki [12]: 0.054 µM | kinact [13]: 0.00517 s⁻¹

COc1cc(C[C@H]2C(=O)OC[C@@H]2Cc2ccc3c(c2)OCO3)cc(OC)c1OC
Ki [12]: 0.177 µM | kinact [13]: 0.00533 s⁻¹

COc1cc(C[C@H]2C(O)OC[C@@H]2Cc2ccc3c(c2)OCO3)cc(OC)c1OC (stereo not given in full)
Ki [12]: 0.082 µM | kinact [13]: 0.00422 s⁻¹

COc1cc(CNC(=O)CCCC/C=C/C(C)C)ccc1O [CAPSAICIN]
mechanism based inhibition [14]: Cytochrome P450 mechanistic inhibitor: PMID 7746093

NNc1nnc(NN)c2ccccc12 [DIHYDRALAZINE]
kinact [4]: 0.000785 s⁻¹

OC[C@H](Cc1ccc2c(c1)OCO2)[C@H](CO)Cc1ccc2c(c1)OCO2 [DIHYDROCUBEBIN]
Ki [12]: 0.142 µM | kinact [13]: 0.00375 s⁻¹

C#C [ETHYNE]
mechanism based inhibition [5]: Cytochrome P450 mechanistic inhibitor: PMID 9760279

O=C1OC[C@H](Cc2ccc3c(c2)OCO3)[C@H]1Cc1ccc2c(c1)OCO2 [HINOKININ]
Ki [12]: 0.373 µM | kinact [13]: 0.00525 s⁻¹

CN1CCC[C@H]1c1cccnc1 [NICOTINE]
kinact ([2]; probe coumarin): 1.18 s⁻¹

Cn1cccc1-c1cccnc1 [NICOTYRINE]
kinact ([2]; probe coumarin): 0.104 s⁻¹

O=NOO [PEROXYNITRITE]
mechanism based inhibition [15]: Cytochrome P450 mechanistic inhibitor: PMID 9760281 | mechanism based inhibition [16]: Cytochrome P450 mechanistic inhibitor: PMID 12588183

Oc1ccc(/C=C/c2cc(O)cc(O)c2)cc1 [RESVERATROL]
mechanism based inhibition [6]: Cytochrome P450 mechanistic inhibitor: PMID 11259321 | mechanism based inhibition [3]: Cytochrome P450 mechanistic inhibitor: PMID 11701226

O=c1c2ccccc2nc2n1CCc1c-2[nH]c2ccccc12 [RUTAECARPINE]
Ki [12]: 108 µM | kinact [13]: 0.00645 s⁻¹

S=P(N1CC1)(N1CC1)N1CC1 [THIOTEPA]
Ki [16]: 31 µM

C=C[C@]1(C)C[C@@H](OC(=O)CSCCN(CC)CC)[C@]2(C)[C@H](C)CC[C@]3(CCC(=O)[C@H]32)[C@@H](C)[C@@H]1O [TIAMULIN]
mechanism based inhibition [3]: Cytochrome P450 mechanistic inhibitor: PMID 7575636

ClC=C(Cl)Cl [TRICHLOROETHYLENE]
mechanism based inhibition [11]: Cytochrome P450 mechanistic inhibitor: PMID 9851676

CCCC(CCC)C(=O)O [VALPROIC ACID]
Ki [1]: 9150 µM | kinact ([2]; human, probe coumarin): 0.0008 s⁻¹

Reference: ChEMBL document CHEMBL1743341, “Cytochrome p450 enzymes mechanism based inhibitors: common sub-structures and reactivity” (Curr Drug Metab, 2005)
